# Values joined by “and” are separate entries in the source; they are usually repeats but may differ in a detail not shown here. Equal values may be shown once.
# Experiments:
# [1] = test system: influenza A virus A/Marton/43 (H1N1); format: cell-based
# [2] = test system: influenza A virus; format: cell-based
compound,measurement,setting,value
"CC(=O)N[C@H]1[C@H]([C@H](O)[C@H](O)CO)OC(C(=O)O)=C[C@@H]1NC(=N)N [Neuraminidase inhibitor, 4-guanidino-2,4-dideoxy-2,3-dehydro-N-acetylneuraminic acid]",average virus titer,[1],4.93 × 10^5 and 2.7 × 10^5
same,"virus localisation in treated TE cultures (staining, FIGS. 12A-F)",[2],accumulation of clumped virus
